Data reported in patent US5811405A (Hoechst Aktiengesellschaft, priority 1996, dated 1998).

Assays:
neutrophil adhesion = experiment: Reperfusion model on the open rabbit heart (Langendorff), leukocyte accumulation and arrhythmias; conditions: perfused rabbit heart, 30 min ischemia, 30 min reperfusion; vs untreated hearts
Protocol: Reperfusion model for investigating the influence of neutrophil adhesion in the course of ischemialreperfusion carried out on the open rabbit heart.
The hearts are perfused with nutrient solution, and also with/without leukocytes and/or active compound, at constant pressure using the Langendorff technique. After that, an ischemia is elicited by ligating the left coronary artery (30 min). Following reperfusion (30 min), the accumulation of leukocytes is evaluated histologically. During the course of the experiment, potentials and arrhythmias are measured at 256 electrodes (total duration of the experiment, approx. 90 min). […] The compounds according to the present invention, and also their physiologically tolerated salts, are very well suited, owing to their valuable pharmacological properties, for use as medicines in mammals, in particular humans.

selectin receptors = conditions: all known in-vitro test systems; Jacob et al., 1995; read-out: IC50 (inhibition of cell adhesion to selectin receptors); cited from earlier work
[1] = system: myocardial reperfusion injuries; conditions: M. Buerke et al., 1994; cited from earlier work
E selectin = molecular target: T1, E selectin (Homo sapiens, UniProt P16581); experiment: HL60 cell adhesion assay on recombinant, soluble E selectin-IgG1 fusion protein; format: cell-based; conditions: HL60 cells
T1 construct: formed from the extracytoplasmic domain of either E selectin or P selectin; made in house; host or cells: COS-7 cells (ATCC), transient transfection with DEAE dextran; secreted into culture supernatant, captured on anti-human IgG
T1 sequence (P16581 22-556): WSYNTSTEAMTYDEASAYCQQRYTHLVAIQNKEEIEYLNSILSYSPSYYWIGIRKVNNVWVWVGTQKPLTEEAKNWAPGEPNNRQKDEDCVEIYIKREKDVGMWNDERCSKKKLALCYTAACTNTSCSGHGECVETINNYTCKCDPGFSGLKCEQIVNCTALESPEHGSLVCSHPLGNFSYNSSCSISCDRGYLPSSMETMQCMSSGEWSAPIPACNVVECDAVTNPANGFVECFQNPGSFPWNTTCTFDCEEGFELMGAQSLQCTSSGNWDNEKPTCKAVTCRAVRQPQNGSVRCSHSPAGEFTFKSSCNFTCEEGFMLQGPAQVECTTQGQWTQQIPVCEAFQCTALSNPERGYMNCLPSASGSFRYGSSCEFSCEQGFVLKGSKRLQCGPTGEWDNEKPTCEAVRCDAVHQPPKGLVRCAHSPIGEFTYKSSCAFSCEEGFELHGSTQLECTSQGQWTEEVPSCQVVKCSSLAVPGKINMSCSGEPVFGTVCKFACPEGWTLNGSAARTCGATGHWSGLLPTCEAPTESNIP
Source text: (§1) Primary assays for investigating the effect of the compounds according to the present invention on the adherence of cells to recombinant, soluble selectin fusion proteins.
(§2) In order to test the efficacy of the compounds according to the invention of the interaction between the E and P selectins (old nomenclature, ELAM-1 and GMP-140, respectively) and their ligands, an assay is used which is in each case specific for only one of these interactions. The ligands are presented in their natural form as surface structures on promyelocytic HL60 cells. […] Recombinantly prepared soluble fusion proteins, formed from the extracytoplasmic domain of either E selectin or P selectin and the constant region of a human immunoglobulin of the IgG1 subclass, were used as binding partners.
Preparation of L selektin-IgG1
The gene construct "ELAM-Rg", published by Walz et al., 1990, was used to prepare soluble […] fusion protein.
For the purposes of expression, the plasmid DNA was transfected into COS-7 cells (ATCC) using DEAE dextran (molecular biological methods: see Ausubel, F. M., Brent, R., Kingston, R. E., Moore, D. D., Seidman, J. G., Struhl, K. and Smith, J. A. 1990. Current Protocols in Molecular Biology, John Wiley, New York). […]

P selectin = molecular target: T2, P selectin (Homo sapiens, UniProt P16109); experiment: HL60 cell adhesion assay on recombinant, soluble P selectin-IgG1 fusion protein; format: cell-based; conditions: HL60 cells
T2 construct: formed from the extracytoplasmic domain of either E selectin or P selectin; made in house; culture supernatant, captured on anti-human IgG
T2 sequence (P16109 42-771): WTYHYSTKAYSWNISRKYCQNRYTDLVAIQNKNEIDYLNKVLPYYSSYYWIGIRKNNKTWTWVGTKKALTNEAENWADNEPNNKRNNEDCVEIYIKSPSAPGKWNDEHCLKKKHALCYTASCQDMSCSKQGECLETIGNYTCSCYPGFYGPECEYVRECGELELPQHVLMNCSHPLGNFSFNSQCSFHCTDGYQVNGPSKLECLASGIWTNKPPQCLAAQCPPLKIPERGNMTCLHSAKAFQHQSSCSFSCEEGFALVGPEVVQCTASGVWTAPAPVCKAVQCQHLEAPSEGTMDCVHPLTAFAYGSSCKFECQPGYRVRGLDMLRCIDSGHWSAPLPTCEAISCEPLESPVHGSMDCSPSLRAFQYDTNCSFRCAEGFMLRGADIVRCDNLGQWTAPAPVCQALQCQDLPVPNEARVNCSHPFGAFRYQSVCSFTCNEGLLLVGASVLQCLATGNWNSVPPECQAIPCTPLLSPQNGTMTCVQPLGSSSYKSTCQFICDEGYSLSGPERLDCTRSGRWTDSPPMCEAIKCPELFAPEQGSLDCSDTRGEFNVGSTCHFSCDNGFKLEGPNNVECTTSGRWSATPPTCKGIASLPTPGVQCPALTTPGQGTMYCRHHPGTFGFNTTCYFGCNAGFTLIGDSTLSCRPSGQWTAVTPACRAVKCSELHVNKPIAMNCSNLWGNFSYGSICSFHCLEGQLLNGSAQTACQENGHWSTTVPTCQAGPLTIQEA
Source text: as §1, §2
Preparation of P selectin-IgG1
The gene construct "CD62Rg", published by Aruffo et al., 1991, is used to prepare the soluble P selectin-IgG1 fusion protein. The subsequent procedure corresponds to the preparation of L selectin-IgG1 which was described in A1. Aruffo, A., Kolanus, W., Walz, G., Fredman, P. and Seed, B. 1991. CD62/-P-Selectin recognition of myeloid and tumor cell sulfatides. Cell 67, 35-44. […]
7. The quantity of BCECF-AM-labeled cells adhering in the wells is measured in a cytofluorimeter (Millipore) at a sensitivity setting of 4, an excitation wavelength of 485/22 nm and an emission wavelength of 530/25 nm.

[2] = system: adhesion of leukocytes to the endothelium; experiment: Leukocyte adhesion in vivo (intravital microscopy on the rat mesentery, LPS-induced); conditions: 10 mg/kg i.v., SPRD(m) rat, LPS 15 mg/kg 15 min after test substance; vs untreated controls
Source text: Leukocyte adhesion--Examination of the efficacy of the compounds according to the invention in vivo (intravital microscopy on the rat):
The induced adhesion of leukocytes is quantified in the rat mesentery using an intravital microscopic investigation technique (Atherton A. and Born G. V. R., Quantitative investigations of the adhesiveness of circulating polymorphonuclear leukocytes to blood vessel walls. J. Physiol. 222, 447-474, 1972); herein incorporated by reference. A prolonged anesthesia is instituted, under inhalation anesthesia with ether, by injecting urethane ([…] of body weight) intramuscularly. Blood vessels (femoral vein for injection of substances and carotid artery for measuring blood pressure) are exposed by dissection and catheters are then tied into them. After that, the corresponding transparent tissue (mesentery) is exposed spread out on a microscope stage and overlaid with paraffin oil at 37° C. […] The resulting increase in the adhesion of leukocytes to the endothelium is quantified directly by means of vital microscopy or using fluorescence dyes. […] The number of rolling leukocytes (i.e. all leukocytes which are visibly rolling and which are slower than the flowing erythrocytes) and the number of leukocytes which are adhering to the endothelium (dwell time longer than 5 seconds) are recorded every 10 minutes for a period of 60 minutes. […]

With chondroitin sulfate the arrhythmias (neutrophil adhesion) was “fewer arrhythmias” and the leukocyte accumulation (neutrophil adhesion) was “less leukocyte accumulation”.
In the case of sialyl Lewis X [SLeX], the IC50 (selectin receptors) is given as ~1000 µM and the “use in animal experiments, myocardial reperfusion injuries” value [1] is given as “used successfully”.
With C[C@@H]1O[C@@H](O[C@H](COCCCCCC(C(=O)O)C(=O)O)[C@@H](COCCCCCC(C(=O)O)C(=O)O)O[C@@H]2O[C@@H](C)[C@@H](O)[C@@H](O)[C@@H]2O)[C@@H](O)[C@H](O)[C@@H]1O [Compound 6a, 1,4-bis(5-malonyl-1-pentyloxy)-2,3-bis(α-L-fucopyranosyl)-D-threitol] the IC50 (E selectin) was 500 to 1500 µM, the IC50 (P selectin) was 3500 to 4100 µM and the “inhibition (of leukocyte adhesion)” value [2] was 39%.
